Laboratory results: the NIST ThermoML archive (doi:10.1021/je050376y)

Experiments:
[1] = 101 kPa, Liquid
[2] = xn = mol fraction of the nth substance listed; conditions: 101 kPa, Liquid

OCCO [1,2-ethanediol]
[1]
Conditions	mass density [kg/m3]	viscosity [mPa·s]
308.15 K	1101.88	11.19
313.15 K	1098.33	9.444
318.15 K	1094.75	7.972
323.15 K	1091.16	6.794
333.15 K	1083.94	5.065
343.15 K	1074.53	3.879
353.15 K	1069.72	3.058

OCCO [1,2-ethanediol] + Cc1ccc(O)cc1
[2], x2 = 0
Conditions	mass density [kg/m3]	viscosity [mPa·s]
308.15 K	1101.88	11.19
313.15 K	1098.33	9.444
318.15 K	1094.75	7.972
323.15 K	1091.16	6.794
333.15 K	1083.94	5.065
343.15 K	1074.53	3.879
353.15 K	1069.72	3.058

Cc1ccc(O)cc1 [4-methylphenol]
[1]
Conditions	mass density [kg/m3]	viscosity [mPa·s]
308.15 K	1021.98	8.444
313.15 K	1018.05	6.745
318.15 K	1014.09	5.471
323.15 K	1010.12	4.532
328.15 K	1006.57	3.888
333.15 K	1002.09	3.245
343.15 K	992.07	2.431
353.15 K	986.24	1.891

Cc1ccc(O)cc1 [4-methylphenol] + CO
[2]
Conditions	mass density, 308.15 K [kg/m3]	mass density, 313.15 K [kg/m3]	mass density, 318.15 K [kg/m3]	mass density, 323.15 K [kg/m3]	mass density, 328.15 K [kg/m3]	viscosity, 308.15 K [mPa·s]	viscosity, 313.15 K [mPa·s]	viscosity, 318.15 K [mPa·s]	viscosity, 323.15 K [mPa·s]	viscosity, 328.15 K [mPa·s]
x1 = 0.1	837.27	832.69	828.09	823.45	819.09	0.701	0.652	0.608	0.568	0.533
x1 = 0.1999	881.21	876.78	872.35	867.89	863.71	0.977	0.901	0.834	0.772	0.719
x1 = 0.2998	914.53	910.25	905.93	901.61	897.58	1.333	1.218	1.112	0.998	0.942
x1 = 0.4	940.54	936.35	932.16	927.93	924.03	1.762	1.588	1.435	1.305	1.192
x1 = 0.4999	961.59	957.48	953.35	949.21	945.39	2.316	2.044	1.817	1.633	1.477
x1 = 0.5999	977.95	973.9	969.84	965.76	962.01	3.021	2.631	2.31	2.043	1.821
x1 = 0.6999	992.04	988.04	984.03	980	976.3	3.928	3.36	2.894	2.527	2.229
x1 = 0.8	1003.53	999.57	995.58	991.58	987.91	5.072	4.251	3.603	3.092	2.688
x1 = 0.8999	1013.73	1009.79	1005.83	1001.84	998.2	6.535	5.364	4.44	3.754	3.212
x1 = 1	1021.98	1018.05	1014.09	1010.12	1006.57	8.444	6.745	5.471	4.532	3.888

CO [methanol]
[1]
Conditions	mass density [kg/m3]	viscosity [mPa·s]
308.15 K	776.92	0.476
313.15 K	772.13	0.445
318.15 K	767.31	0.421
323.15 K	762.46	0.395
328.15 K	757.85	0.372

CO [methanol] + Cc1ccc(O)cc1
[2], x2 = 0
Conditions	mass density [kg/m3]	viscosity [mPa·s]
308.15 K	776.92	0.476
313.15 K	772.13	0.445
318.15 K	767.31	0.421
323.15 K	762.46	0.395
328.15 K	757.85	0.372
